Experimental findings from ChEMBL document CHEMBL6182949 (J Med Chem, 2025) are described below.

Activity calls are given as the source filed them.

The target in data set [1] is T1, Protein cereblon/Interleukin-1 receptor-associated kinase 4 (Homo sapiens, UniProt Q9NWZ3+Q96SW2). Kind of data set: PROTAC activity at CRBN/IRAK4 in human PBMC cells assessed as induction of IRAK4 degradation incubated for 24 hrs by HiBiT lytic reagent based analysis relative to control. It counts as cell-based. A general note: With HiBiT, luminescence reflects the tagged protein that the partner subunit can reach.
Target sequence in this assay (Q96SW2 whole entry, looked up, one chain of several): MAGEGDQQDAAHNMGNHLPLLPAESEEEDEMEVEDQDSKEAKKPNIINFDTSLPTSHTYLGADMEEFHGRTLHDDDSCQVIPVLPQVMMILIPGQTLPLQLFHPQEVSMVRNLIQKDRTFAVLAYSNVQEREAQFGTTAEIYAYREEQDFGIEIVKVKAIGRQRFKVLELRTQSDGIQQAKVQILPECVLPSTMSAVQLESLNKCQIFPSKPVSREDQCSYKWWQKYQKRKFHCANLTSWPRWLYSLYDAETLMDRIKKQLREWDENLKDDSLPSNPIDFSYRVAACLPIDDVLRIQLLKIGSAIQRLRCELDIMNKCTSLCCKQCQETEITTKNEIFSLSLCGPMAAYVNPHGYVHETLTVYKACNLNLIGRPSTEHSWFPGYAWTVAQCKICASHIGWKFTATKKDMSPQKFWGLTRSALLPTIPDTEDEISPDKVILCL

Data set [2] in a line: Inhibition of LPS-stimulated IL-6 release in human PBMC cells. It counts as functional, cell-based.
For data set [3], the system named is Mus musculus. Kind of data set: Anti-psoriasis effect in IMQ-induced C57BL/6 mouse assessed as reduction in cumulative score at 30 mg/kg administered topically twice daily for 6 days and measured after 24 hrs. It counts as functional, organism-based. To be noted: time 7.0 day.
Data set [4] has as its system Mus musculus. Kind of data set: Anti-psoriasis effect in IMQ-induced C57BL/6 mouse assessed as reduction in cumulative score at 100 mg/kg administered topically twice daily for 6 days and measured after 24 hrs. The format is functional, organism-based. To be noted: time 7.0 day.
Data set [5] deals with Mus musculus. Kind of data set: Anti-psoriasis effect in IMQ-induced C57BL/6 mouse assessed as reduction in delta ear thickness at 30 mg/kg administered topically twice daily for 6 days and measured after 24 hrs. The format is functional, organism-based. To be noted: time 7.0 day.
For data set [6], the system named is Mus musculus. The data set is described as follows: Anti-psoriasis effect in IMQ-induced C57BL/6 mouse assessed as reduction in delta ear thickness at 100 mg/kg administered topically twice daily for 6 days and measured after 24 hrs. To be noted: time 7.0 day. The format is functional, organism-based.
Data set [7] deals with T1, Protein cereblon/Interleukin-1 receptor-associated kinase 4. Kind of data set: PROTAC activity at CRBN/IRAK4 in human THP-1 cells assessed as induction of IRAK4 degradation incubated for 24 hrs by HiBiT lytic reagent based analysis. It counts as cell-based.
Target sequence in this assay (Q96SW2 whole entry, one chain of several): as the sequence (Q96SW2 whole entry, looked up, one chain of several) above
For data set [8] the target is unchanged. The data set is described as follows: PROTAC activity at CRBN/IRAK4 in human THP-1 cells assessed as induction of IRAK4 degradation incubated for 24 hrs by HiBiT lytic reagent based analysis relative to control. It counts as cell-based.
Target sequence in this assay (Q96SW2 whole entry, looked up, one chain of several): as above
Data set [9] can be described thus: Metabolic stability in human liver microsome assessed as half life at 1 uM measured up to 60 mins in presence of NADPH by LC-MS/MS analysis. To be noted: liver microsomes. The format is ADME. In general terms: Liver microsomes are a subcellular fraction often used to study metabolism.
Data set [10] can be described thus: Metabolic stability in dog liver microsome assessed as half life at 1 uM measured up to 60 mins in presence of NADPH by LC-MS/MS analysis. The format is ADME, Canis lupus familiaris. To be noted: liver microsomes.
A short description of data set [11]: Metabolic stability in mouse liver microsome assessed as half life at 1 uM measured up to 60 mins in presence of NADPH by LC-MS/MS analysis. The format is ADME. To be noted: liver microsomes.
The next data set deals with hERG (Homo sapiens, UniProt Q12809). Kind of data set: Inhibition of hERG expressed in HEK293 cells at 10 uM by manual patch clamp assay relative to control. The format is toxicity, cell-based. To be noted: HEK293 cells expressing hERG. On the technique in general: Block of hERG is tested as a sign of cardiac risk.
hERG, sequence (Q12809 whole entry): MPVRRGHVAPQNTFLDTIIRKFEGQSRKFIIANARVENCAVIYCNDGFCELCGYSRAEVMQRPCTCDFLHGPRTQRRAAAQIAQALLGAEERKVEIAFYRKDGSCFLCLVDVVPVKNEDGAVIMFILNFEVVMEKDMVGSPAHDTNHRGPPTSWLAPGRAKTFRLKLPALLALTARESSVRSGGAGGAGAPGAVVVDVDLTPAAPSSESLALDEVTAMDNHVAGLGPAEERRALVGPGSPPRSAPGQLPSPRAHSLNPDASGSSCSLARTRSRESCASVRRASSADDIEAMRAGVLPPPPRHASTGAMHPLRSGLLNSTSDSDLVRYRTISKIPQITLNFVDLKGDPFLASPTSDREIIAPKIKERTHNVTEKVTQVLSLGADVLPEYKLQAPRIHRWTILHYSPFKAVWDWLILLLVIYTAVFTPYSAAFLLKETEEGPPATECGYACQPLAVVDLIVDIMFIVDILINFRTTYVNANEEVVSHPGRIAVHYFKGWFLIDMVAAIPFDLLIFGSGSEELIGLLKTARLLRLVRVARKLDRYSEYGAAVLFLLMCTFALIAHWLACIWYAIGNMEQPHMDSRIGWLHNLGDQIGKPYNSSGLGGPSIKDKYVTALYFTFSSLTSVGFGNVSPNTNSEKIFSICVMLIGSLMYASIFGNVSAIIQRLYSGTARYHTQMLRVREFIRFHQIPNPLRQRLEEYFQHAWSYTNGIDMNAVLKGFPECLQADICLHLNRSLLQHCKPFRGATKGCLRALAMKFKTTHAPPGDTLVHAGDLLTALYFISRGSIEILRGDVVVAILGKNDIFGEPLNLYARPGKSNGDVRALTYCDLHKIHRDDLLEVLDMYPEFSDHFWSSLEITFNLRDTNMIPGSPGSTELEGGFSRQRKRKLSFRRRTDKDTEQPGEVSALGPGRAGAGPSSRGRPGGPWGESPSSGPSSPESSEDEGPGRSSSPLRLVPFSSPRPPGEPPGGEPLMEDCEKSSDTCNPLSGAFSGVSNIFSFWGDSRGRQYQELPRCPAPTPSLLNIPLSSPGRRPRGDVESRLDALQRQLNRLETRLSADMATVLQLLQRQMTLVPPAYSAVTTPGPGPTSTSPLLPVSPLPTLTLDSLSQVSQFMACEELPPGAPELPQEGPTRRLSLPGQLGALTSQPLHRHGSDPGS
For data set [12], the target named is T2, Interleukin-1 receptor-associated kinase 4 (Homo sapiens, UniProt Q9NWZ3).
T2 sequence (Q9NWZ3 whole entry): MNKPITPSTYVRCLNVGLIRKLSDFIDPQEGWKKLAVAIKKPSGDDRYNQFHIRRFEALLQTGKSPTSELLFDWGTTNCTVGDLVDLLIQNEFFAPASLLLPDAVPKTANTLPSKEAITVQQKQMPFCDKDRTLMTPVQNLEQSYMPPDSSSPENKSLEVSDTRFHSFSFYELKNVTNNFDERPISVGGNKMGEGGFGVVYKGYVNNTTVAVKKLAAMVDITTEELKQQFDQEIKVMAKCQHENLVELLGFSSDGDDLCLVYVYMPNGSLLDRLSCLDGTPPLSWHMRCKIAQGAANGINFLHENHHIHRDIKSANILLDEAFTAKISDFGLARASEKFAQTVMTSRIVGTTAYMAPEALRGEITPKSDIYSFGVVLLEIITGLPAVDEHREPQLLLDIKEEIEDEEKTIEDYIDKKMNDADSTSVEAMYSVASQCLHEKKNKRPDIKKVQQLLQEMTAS
Kind of data set: Inhibition of IRAK4 (unknown origin).

As usually defined, the Emax is the maximal effect, on the per cent scale that the assay sets. By IC50 is commonly meant the point on the concentration scale where inhibition reaches its midpoint. A lower IC50 goes with greater potency in that assay. For `Cn1c(=O)n(C2CCC(=O)NC2=O)c2cccc(C#CCOC3CCN(C[C@H]4CC[C@H](n5cc(NC(=O)c6cnn7ccc(N8C[C@H]9C[C@@H]8CO9)nc67)c(C(F)F)n5)CC4)CC3)c21` (stereo partly drawn) [KT-474], the maximal effect (Emax) in data set [1] is 82%. The compound further came in with an IC50 in data set [2] of 29.1 nM. Further, the outcome with Mus musculus [3], with Mus musculus [4], in the data set on Mus musculus [5] and in the data set with Mus musculus [6] was inactive.

The DC50 is the midpoint of the concentration-degradation curve. As usually defined, the half-life is the time needed for the level to fall by half in the phase considered. One may read the inhibition as the percentage by which the read-out fell short of the control. A high value points to strong suppression. Turning to `Cn1c(=O)n(C2CCC(=O)NC2=O)c2cccc(C#CCO[C@H]3CC[C@H](CN4CCC5(CC4)Cc4cc(NC(=O)c6cnn7cccnc67)c(N6CCC(C(=O)O)CC6)cc4O5)CC3)c21` (stereo partly drawn), the DC50 in [7] was 12 nM. Moreover, in data set [8], the maximal response (Emax) amounted to 38%. For the same compound, the half-life at 1 µM in [9], in data set [10] and in [11] was greater than 3.07 h each time. Further, the inhibition at 10 µM against hERG turned out to be 43%.

`CN1CCC2(CC1)Cc1cc(NC(=O)c3cnn4cccnc34)c(N3CCC(CO)CC3)cc1O2`: the IC50 in [12] is 0.91 nM.
